# Experimental data as given in PMC11073428, “The activity of pyrazolo[4,3-e][1,2,4]triazine and pyrazolo[4,3-e]tetrazolo[1,5-b][1,2,4]triazine sulphonamide derivatives in monolayer and spheroid breast cancer cell cultures” (Journal of Enzyme Inhibition and Medicinal Chemistry, 2024).
# Test system: MDA-MB-231 breast cancer cells
# Test: Autophagy Assay, Red, flow cytometry, MDA-MB-231
# Format: cell-based, human
# Experimental: The effect of novel compound 3b at 0.25 µM and 0.5 µM concentration on the induction of autophagy in MCF-7 and MDA-MB-231 pre-treated 1 h with or not autophagy inhibitor 3-MA for 1 h (3-methyladenine, Sigma-Aldrich, St. Louis, MO) at 1 mM concentration[29] was assessed by ICT’s Autophagy Assay, Red using a flow cytometer. The test was performed as previously. Briefly, cells were washed with PBS and suspended in 490 µL of PBS. To each probe, 10 µL of diluted Autophagy Probe, Red solution was added. Prepared samples were incubated at 37 °C for 60 min. Following incubation, cells were suspended in diluted cellular assay buffer and centrifuged. Then, supernatant was removed, and cells were resuspended in diluted cellular assay buffer and centrifuged again. This step was repeated three times. Finally, cell pellet was resuspended in 0.5 mL of diluted cellular assay buffer. The analysis was performed with a flow cytometer (excitation/emission 590 nm/620 nm).
smiles,measurement,setting,value
"Cc1nn(-c2ccc(S(=O)(=O)N[C@@H](CO)Cc3ccccc3)cc2)c2nn3nnnc3nc12 [Compound 3b, (R)-N-(1-hydroxy-3-phenylpropan-2-yl)-4-(7-methyl-5H-pyrazolo[4,3-e]tetrazolo[1,5-b][1,2,4]triazin-6-yl)benzenesulfonamide]",autophagic cells (rate of autophagosomes),"MDA-MB-231, 0.5 µM, 24 h",47.1 ± 0.6%
same,autophagic cells in presence of 3-MA,"MDA-MB-231, 3b 0.5 µM + 3-MA (1 mM, 1 h pre-treatment)",25.9 ± 4.7%
